Results from patent US8518965B2, “Compositions and methods for treating cancer” (Trustees of Dartmouth College, priority 2009, dated 2013).
Read-outs that look alike come from different tables or passages of the source.

What was measured:
[1] = system: SF 295 human glioblastoma cells; experiment: Colony formation assay, SF 295 cells; format: cell-based
Description: (§1) NCI/ADR-RES human breast cancer cells (500 cells), HCT116 human colon cancer cells (400 cells) or SF 295 human glioblastoma cells (1000 cells) were plated in 60 mm Petri dishes containing 2.7 ml of medium (modified McCoy's 5a medium containing 10% fetal bovine serum and 100 units/ml penicillin and 100 μg/ml streptomycin). The cells were incubated in a CO2 incubator at 37° C. for 5 hours for attachment to the bottom of Petri dishes. Compounds were prepared fresh in medium at ten times the final concentration, and then 0.3 ml of this stock solution was added to the 2.7 ml of medium in the dish. The cells were then incubated with compounds for 72 hours at 37° C. At the end of incubation, the compound-containing media were decanted, the dishes were rinsed with 4 ml of Hank's Balance Salt Solution (HBSS), 5 ml of fresh medium was added, and the dishes were returned to the incubator for colony formation. The cell colonies were counted using a colony counter after incubation for 14 days for NCI/ADR-RES cells and 10 days for HCT116 cells and SF 295 cells. Cell survival was calculated and the IC50 values (the drug concentration producing 50% inhibition of colony formation) were determined for each tested compound.
One thousand SF 295 cells were plated in 60 mm Petri dishes containing 2.7 ml of medium (modified McCoy's 5a medium containing 10% fetal bovine serum and 100 units/ml penicillin and 100 μg/ml streptomycin). The cells were incubated in a CO2 incubator at 37° C. for 5 hours for attachment to the bottom of Petri dishes. Compounds were prepared fresh in medium at ten times the final concentration, and then 0.3 ml of this stock solution was added to the 2.7 ml of medium in the dish. The cells were then incubated with the compounds for 72 hours at 37° C. At the end of incubation, the compound-containing media were decanted, the dishes were rinsed with 4 ml of Hank's Balance Salt Solution (HBSS), 5 ml of fresh medium was added, and the dishes were returned to the incubator for colony formation. After incubation for 10 days, the cell colonies were counted using a colony counter. Cell survival was calculated and the values of IC50 were determined for each compound tested.

[2] = Solubility in solvents and buffers; format: physicochemical; conditions: for solubility: read-out: Solubility (mg/ml), 25° C.
Description: Characterization of D11B. The solubility of D11B in different solvents was analyzed (Table 1).
(§2) The solubility of D11B in various combinations of solvents was also analyzed. […] For the analysis of co-solvents, stock solutions were prepared by dissolving D11B in a corresponding solvent. Stock solutions of D11B in dimethylsulfoxide (DMSO) were prepared at 25° C., and stock solutions of D11B in PEG-400, CREMOPHOR® EL and Polysorbate 80 were prepared at 100° C. Injection solutions, in water (0.3 mg/ml), were prepared by dropwise addition of the stock solution to a required volume of vigorously stirred hot water (80° C.).
The solubility of D11B×2AH in DMSO, PEG-400, EtOH, and buffer was determined (Table 7).

[3] = State of stock and injection solutions in water + co-solvents; format: physicochemical
Description: as §2
Additional solubility determinations were carried out with D11B×2AH in water+co-solvents. For this analysis, stock solutions were prepared by dissolving D11B×2AH in a corresponding solvent. Stock solutions of D11B×2AH in DMSO were prepared at 25° C. and stock solutions of D11B×2AH in PEG-400 were prepared at 100° C.
Injection solutions in water (0.3 mg/ml) were prepared by dropwise addition of each stock solution to a required volume of vigorously stirred water.

[4] = in vivo; conditions: C3H/HeN, mouse, ip
Description: The MTD40 (maximum tolerated dose at day 40) values were determined on normal C3H/HeN mice using standard procedures. […] The result of this exercise was two dosages, one apparently nonlethal and the other lethal, if severe and irreversible toxicity occurred and euthanasia was required. Six mice were dosed at each dosage. If no severe and irreversible toxicity occurred at the lower dosage and at least one with severe and irreversible toxicity at the higher dose, then the lower dose was considered to be the MTD.
Compounds were administered to C3H/HeN mice by intraperitoneal injection (5% alcohol, 5% CREMOPHOR® EL, and 90% saline, 0.5 ml/20 gram, single injection). Drug toxicity was evaluated on mice checked daily for 40 days. The toxicity parameters reported were the MTD40. […] At the end of experiment, all mice were euthanized.
The toxicity parameters reported were the MTD40. At the end of experiment, all mice will be euthanized.

[5] = system: HCT116 human colon cancer cells; experiment: Colony formation assay, HCT116 cells; format: cell-based
Description: as §1
Four hundred HCT116 cells were plated in 60 mm Petri dishes containing 2.7 ml of medium (modified McCoy's 5a medium containing 10% fetal bovine serum and 100 units/ml penicillin and 100 μg/ml streptomycin). The cells were incubated in a CO2 incubator at 37° C. for 5 hours for attachment to the bottom of Petri dishes. Compounds were prepared fresh in medium at ten times the final concentration, and then 0.3 ml of this stock solution was added to the 2.7 ml of medium in the dish. The cells were then incubated with drugs for 72 hours at 37° C. At the end of incubation the compound-containing media were decanted, the dishes were rinsed with 4 ml of Hank's Balance Salt Solution (HBSS), 5 ml of fresh medium was added, and the dishes were returned to the incubator for colony formation. HCT116 cell colonies were counted using a colony counter after […] of incubation. Cell survival was calculated and IC50 values were determined for each compound tested.

c1ccc2c(Nc3ccc(Oc4ccc(Nc5c6ccccc6nc6ccccc56)cc4)cc3)c3ccccc3nc2c1 [Compound D11B]
IC50 ([1]; Homo sapiens, SF 295 cells, 72 hours with compound, colonies counted after 10 days, read-out: IC50 (nM) Glioblastoma): 177 nM | IC50 values lower for glioblastoma cells as compared to breast cancer cells ([1]; glioblastoma vs breast cancer cells): approximately 10 fold | Solubility in 5% dextrose in water ([2]; 5% dextrose in water): negligible | solubility ([2]; AcOH, 25 °C, organic solvent or mixture, AcOH): ~0.01 mg/mL | solubility ([2]; AcOH-H2O (1-1), 25 °C, aqueous with cosolvent or surfactant or cyclodextrin, AcOH—H2O (1-1)): > 1.1 mg/mL | solubility ([2]; AcOH-H2O (9-1), 25 °C, organic solvent or mixture, AcOH—H2O (9-1)): > 13 mg/mL | solubility ([2]; CHCl3, 25 °C, organic solvent or mixture, CHCl3): 0.12 mg/mL | solubility ([2]; DMF, 25 °C, organic solvent or mixture, DMF): ~20 mg/mL | solubility ([2]; DMSO, 25 °C, organic solvent or mixture, DMSO): ~100 mg/mL | Solubility (mg/ml), 25° C. ([2]; H2O): negligible | solubility ([2]; MeOH, 25 °C, organic solvent or mixture, MeOH): ~1 mg/mL | solubility ([2]; Na2HPO4-citric acid buffer, 25 °C, pH 4, aqueous buffer, Na2HPO4-citric acid buffer (pH = 4), first entry): < 0.1 mg/mL | solubility ([2]; Na2HPO4-citric acid buffer, 25 °C, pH 4, aqueous buffer, Na2HPO4-citric acid buffer (pH = 4), second entry): < 0.1 mg/mL | solubility ([2]; PEG-400, 25 °C, organic solvent or mixture, PEG-400, heating to 100° C. was required): ~12 mg/mL | Solubility in saline ([2]; saline (0.9% NaCl in water)): negligible | State of the stock solution ([3]; D11B in DMSO, 20 mg/ml): clear | State of the stock solution ([3]; D11B in DMSO, 30 mg/ml): clear | State of the stock solution ([3]; D11B in DMSO, 40.5 mg/ml): clear | State of the stock solution ([3]; D11B in DMSO, 50 mg/ml): clear | State of the stock solution ([3]; D11B in DMSO, 70 mg/ml): clear | State of the stock solution ([3]; D11B in DMSO, 100 mg/ml): clear | State of the injection solution ([3]; D11B in H2O-CREMOPHOR EL, 0.3 mg/ml, CREMOPHOR EL 1 wt. %): clear | State of the injection solution ([3]; D11B in H2O-PEG-400 0.3 mg/ml, stock 12 mg/ml, PEG-400 2.82 wt. %): clear^b | State of the injection solution ([3]; D11B in H2O-PEG-400 0.3 mg/ml, stock 20 mg/ml, PEG-400 1.7 wt. %): clear^a | State of the injection solution ([3]; D11B in H2O-Polysorbate 80, 0.3 mg/ml, Polysorbate 80 1 wt. %): clear | State of the injection solution ([3]; D11B in H2O—DMSO 0.3 mg/ml, stock 20 mg/ml, DMSO 1.65 wt. %): clear | State of the injection solution ([3]; D11B in H2O—DMSO 0.3 mg/ml, stock 30 mg/ml, DMSO 1.1 wt. %): clear | State of the injection solution ([3]; D11B in H2O—DMSO 0.3 mg/ml, stock 40.5 mg/ml, DMSO 0.83 wt. %): clear | State of the injection solution ([3]; D11B in H2O—DMSO 0.3 mg/ml, stock 50 mg/ml, DMSO 0.66 wt. %): clear | State of the injection solution ([3]; D11B in H2O—DMSO 0.3 mg/ml, stock 70 mg/ml, DMSO 0.47 wt. %): clear | State of the injection solution ([3]; D11B in H2O—DMSO 0.3 mg/ml, stock 100 mg/ml, DMSO 0.33 wt. %): clear | State of the stock solution ([3]; D11B in PEG-400, 12 mg/ml): clear | State of the stock solution ([3]; D11B in PEG-400, 20 mg/ml): gel | State of the stock solution ([3]; D11B in PEG-400, 40 mg/ml): gel | State of the stock solution ([3]; D11B in Polysorbate 80, 32.25 mg/ml): clear | MTD at 40 days [4]: 450 mg/kg | IC50 ([5]; Homo sapiens, HCT-116, HCT116 cells, 72 hours with compound, colonies counted after 10 days, read-out: IC50 (nM) Colon Cancer): 167 nM | IC50 values lower for colon cells as compared to breast cancer cells ([5]; colon vs breast cancer cells): approximately 10 fold
